Tested on: memory CD8^+ T cells within PBMCs
Assay type: cell-based, human

| Sequence | cross-reactivity of CD8^+ T cells after in vitro expansion with the peptide | recognition of IBV-derived variant by IAV-expanded CD8^+ T cells |
| --- | --- | --- |
| FEDLRVLSA (Influenza A virus) [NP338-345] | recognizing both IAV- and IBV-derived peptides |  |
| YEDLRVLSA (Influenza B virus) [BNP394-401] | could not expand CD8^+ T cells | to a lesser extent |

Reference: patent publication US11517617B2, “Methods and compositions for preventing influenza infection” (THE UNIVERSITY OF MELBOURNE, priority 2017, dated 2022)
